Experimental data reported in PubChem BioAssay AID1959 (Broad Institute, 2009).
Active and inactive are the calls of the source.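 How the source made its calls: active means growth-inhibition EC50 no more than tenfold above the top tested dose; inconclusive means flat fit between 30% and 70% inhibition, or unreliable fit; inactive means EC50 more than tenfold above the top tested dose.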

Each compound was assayed on E. coli NEB5alpha growth, BacTiter-Glo luminescence, 4 h (assay: antibacterial activity against E. coli NEB5alpha – luminescence, counter-screen for MEX-5/POS-1 RNA-binding inhibitor project, dose response (AID 1959);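 further: pUC19-transformed ampicillin-resistant cells grown in LB with ampicillin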).
CCC1(c2ccccc2)NC(=O)N(CC(=O)NCc2ccc(F)cc2)C1=O (stereo not drawn) was tested, and the EC50 was > 11 µM (inactive).
In the case of CCc1ccc(C(=O)NNC(=O)c2ccc(=O)n(C)n2)cc1, the EC50 is reported as > 11 µM (inactive).
With CCc1c(C)nc(SCC(=O)NNC(=O)c2ccco2)[nH]c1=O the EC50 was > 11 µM (inactive).
With CC(C)N1CCc2c(sc(NC(=O)c3ccc(S(=O)(=O)N(C)CC4CCCO4)cc3)c2C(N)=O)C1 (stereo not drawn) the EC50 was > 11 µM (inactive).
With Cc1ccc(C(=O)CSc2nc3c([nH]2)c(=O)n(C)c(=O)n3C)cc1 the EC50 was > 11 µM (inactive).
In the case of CC(C)c1cc(C(N)=O)c(NC(=O)c2cccc(COc3ccc(Br)cc3)c2)s1, the EC50 is reported as > 11 µM (inactive).
With NS(=O)(=O)c1ccc(-c2ccc(/C=C3\SC(=O)NC3=O)o2)cc1 the EC50 was > 11 µM (inactive).
With C=CCOc1cccc(C2C(C(=O)c3ccc(C)o3)=C(O)C(=O)N2c2nnc(C)s2)c1 (stereo not drawn) the EC50 was > 11 µM (inactive).
For O=C(O)c1ccc(-c2ccc(/C=C3\NC(=O)N(Cc4ccc(Cl)cc4)C3=O)o2)cc1Cl, the EC50 was > 11 µM (inactive).
Cc1ccc(NC(=O)Cn2c(=O)c(C)nc3ccccc32)cc1 was tested, and the EC50 was > 11 µM (inactive).
In the case of CCOc1ccc2ccccc2c1C1NC(=O)N(C)C(C)=C1C(=O)OCCOC (stereo not drawn), the EC50 is reported as > 11 µM (inactive).
C=CCN1C(=O)NC(=O)/C(=C/c2ccc(OCC(=O)Nc3ccc(C)cc3)cc2)C1=O was tested, and the EC50 was > 11 µM (inactive).
In the case of COc1ccc(C2CC(c3cccs3)=NN2c2ccc(C=O)cc2)cc1 (stereo not drawn), the EC50 is reported as > 11 µM (inactive).
In the case of Cc1c(NC(=O)c2coc(=O)c(Br)c2)c(=O)n(-c2ccccc2)n1C, the EC50 is reported as > 11 µM (inactive).
For Cc1cc(C(=O)N/N=C/c2cc(Cl)cc([N+](=O)[O-])c2O)n[nH]1, the EC50 was > 11 µM (inactive).
With Oc1c(Cl)cc(Cl)c(Cl)c1Cc1c(O)c(Cl)cc(Cl)c1Cl the EC50 was > 11 µM (inactive).
With Cc1ccc(S(=O)(=O)N2CCOCC2)cc1C(=O)Nc1ccc(S(=O)(=O)Nc2nccs2)cc1 the EC50 was > 11 µM (inactive).
COc1ccc(N2C(=O)/C(=C/c3ccc(C)o3)C(=O)NC2=S)cc1 was tested, and the EC50 was > 11 µM (inactive).
COc1ccc(Nc2nc3ccccc3nc2NS(=O)(=O)c2cccs2)c(OC)c1 was tested, and the EC50 was > 11 µM (inactive).
With COC/C=C/C1=CC2=CC(=O)C(C)(OC(=O)CCC(=O)OC)C(=O)C2=CO1 (stereo not drawn) the EC50 was > 11 µM (inactive).
In the case of CCCn1nc(C(=O)Nc2ccc3nc(C)sc3c2)c2ccccc2c1=O, the EC50 is reported as > 11 µM (inactive).
In the case of CC1(C)Cc2c(cnn2-c2cccc(F)c2)C(NC(=O)CSc2ccccn2)C1 (stereo not drawn), the EC50 is reported as > 11 µM (inactive).
In the case of COc1ccc(P2(=O)Nc3ccccc3N2)cc1, the EC50 is reported as > 11 µM (inactive).
CN1Cc2c(c(C#N)c(N)n(C)c2=S)CC1(C)C was tested, and the EC50 was > 11 µM (inactive).
In the case of CCCCN(C)C(=O)c1cccc(OC2CCN(CC(C)(C)C)CC2)c1, the EC50 is reported as > 11 µM (inactive).
For COc1ccc(N=C(C)c2sc3ccccc3c2O)cc1, the EC50 was > 11 µM (inactive).
With COC(=O)c1ccc(C)c(-n2c(C)cc(C=O)c2C)c1 the EC50 was > 11 µM (inactive).
CN1C(=O)C(=Cc2ccc(SC3CCCCC3)o2)C(=O)N(C)C1=O was tested, and the EC50 was > 11 µM (inactive).
In the case of CCCCN(C)C(=O)CCC(=O)NNc1nc2ccccc2c2nc(C)nn12, the EC50 is reported as > 11 µM (inactive).
Cn1cccc1/C=C1\C(=O)NC(=O)N(CCC2=CCCCC2)C1=O was tested, and the EC50 was > 11 µM (inactive).
In the case of Cc1cccc(S(=O)(=O)C(C#N)c2nc3ccccc3nc2N2CCOCC2)c1 (stereo not drawn), the EC50 is reported as > 11 µM (inactive).
In the case of Cc1c(O)ccc(-c2n[nH]c(C(=O)O)c2-c2nc3ccccc3s2)c1O, the EC50 is reported as > 11 µM (inactive).
Cc1ccc(CN2C(=O)N/C(=C\c3cccn3-c3cccc(C(=O)O)c3)C2=O)cc1 was tested, and the EC50 was > 11 µM (inactive).
For C=CCOc1cccc(C2C(C(=O)c3ccco3)=C(O)C(=O)N2Cc2ccco2)c1 (stereo not drawn), the EC50 was > 11 µM (inactive).
CSc1nnc(N2C(=O)C(O)=C(C(=O)c3ccco3)C2c2ccccc2)s1 (stereo not drawn) was tested, and the EC50 was > 11 µM (inactive).
For NC(=O)c1cccc(N=Cc2cc(Cl)cc(Cl)c2O)c1, the EC50 was > 11 µM (inactive).
COC(=O)c1cc(C(=O)OC)cc(-n2c(C)cc(C(=O)CC#N)c2C)c1 was tested, and the EC50 was > 11 µM (inactive).
COc1ccc(C2C(C(=O)c3cccs3)=C(O)C(=O)N2c2nnc(C)s2)cc1OC (stereo not drawn) was tested, and the EC50 was > 11 µM (inactive).
With CSCC(C)N1CCC(n2nccc2NC(=O)CCCc2ccccc2)CC1 (stereo not drawn) the EC50 was > 11 µM (inactive).
With CCN1C(=O)/C(=C2/C=Cc3ccccc3N2C)OC1=S the EC50 was > 11 µM (inactive).
With COc1ccc(C(=O)NC2(C(F)(F)F)C(=O)N(Cc3ccco3)C3=C2C(=O)CC(C)(C)C3)cc1OC (stereo not drawn) the EC50 was > 11 µM (inactive).
With COc1cc(NC(=O)CSc2nc3ncnc(N)c3[nH]2)c(C(=O)O)cc1OC the EC50 was > 11 µM (inactive).
With CCOC(=O)c1ccc(-n2c(CCC(=O)O)ccc2-c2ccc(F)cc2)cc1 the EC50 was > 11 µM (inactive).
For O=C(Cc1ccccc1)NNC(=O)c1cnccn1, the EC50 was > 11 µM (inactive).
For CN1CC=C2C(C#N)=C(N)C(C#N)(C#N)[C@H](c3cccc(Cl)c3)C2C1 (stereo partly drawn), the EC50 was > 11 µM (inactive).
For CC[C@H](C)/C=C(C)/C=C/C1=CC2=C(Cl)C(=O)[C@@](C)(OC(C)=O)C(=O)C2=CO1, the EC50 was > 11 µM (inactive).
O/C=c1\ccc2cccc3nc(C(F)(F)F)nc1c23 was tested, and the EC50 was > 11 µM (inactive).
With CCN1C(=O)/C(=C2\SC(=S)N(NC(=O)c3ccccc3O)C2=O)c2ccccc21 the EC50 was > 11 µM (inactive).
CCOCCCNc1nc2nc3ccc(C)cn3c(=O)c2cc1C(=O)NCC1CCCO1 (stereo not drawn) was tested, and the EC50 was > 11 µM (inactive).
For COc1ccc(/C=C2\CCCc3c2nc2ccccc2c3C(=O)O)cc1OC, the EC50 was > 11 µM (inactive).
With O=c1c(O)cccc2cc(O)c(O)c(O)c12 the EC50 was > 11 µM (inactive).
With CCCCN(C(=O)c1ccc([N+](=O)[O-])o1)c1c(N)n(CC(C)C)c(=O)[nH]c1=O the EC50 was > 11 µM (inactive).
With COc1ccc(C2C(C(=O)c3cccs3)=C(O)C(=O)N2c2nncs2)cc1 (stereo not drawn) the EC50 was > 11 µM (inactive).
For O=C(O)c1cccc(-n2cccc2/C=C\[N+](=O)[O-])c1, the EC50 was > 11 µM (inactive).
COc1ccc(OC)c(S(=O)(=O)Nc2ccc(O)c(Sc3ncn[nH]3)c2)c1 was tested, and the EC50 was > 11 µM (inactive).
For CCN(CC)C(=O)c1sc2nc(-c3cccs3)cc(-c3cccs3)c2c1N, the EC50 was > 11 µM (inactive).
With CCOC(=O)c1c(-n2c(C)cc(C=C3C(=O)NC(=O)NC3=O)c2C)sc2c1CCCC2 the EC50 was > 11 µM (inactive).
In the case of CC(C)OCCCn1c(=NC(=O)c2cccs2)c(C#N)cc2c(=O)n3ccccc3nc21, the EC50 is reported as > 11 µM (inactive).
For COC(=O)Cn1cc(C=C2C(=O)N(C)C(=O)N(C)C2=O)c2ccccc21, the EC50 was > 11 µM (inactive).
CCOC(=O)N1CCN(CC(=O)c2ccc(O)cc2O)CC1 was tested, and the EC50 was > 11 µM (inactive).
In the case of O=C(O)C(=O)/C(=C\c1cccc2ccccc12)c1ccc2ccccc2n1, the EC50 is reported as > 11 µM (inactive).
For CNCc1ccccc1Sc1ccc(O)c(O)c1, the EC50 was > 11 µM (inactive).
With O=S(=O)(c1ccccc1)N1CCC(O)(CSc2ccc(Cl)cc2)CC1 the EC50 was > 11 µM (inactive).
For COC(=O)C1=C(C)N(Cc2ccccc2)C(=NCC(C)C)N[C@H]1c1ccccc1, the EC50 was > 11 µM (inactive).
CNc1nnc(-c2cc3ccccc3oc2=O)s1 was tested, and the EC50 was > 11 µM (inactive).
With COc1ccc(N2C(=O)/C(=C/c3ccco3)C(=O)NC2=S)cc1 the EC50 was > 11 µM (inactive).
With Cn1c(=O)[nH]c2cc(Cl)cnc21 the EC50 was > 11 µM (inactive).
In the case of O=C(OCCc1ccccc1)c1cc(O)c(O)c(O)c1, the EC50 is reported as > 11 µM (inactive).
